Experimental findings from patent US20240383905A1, “FGFR INHIBITORS AND METHODS OF USE THEREOF” (3H PHARMACEUTICALS CO., LTD., priority 2021, published 2024) are described below.

The target of assay [1] is T1, FGFR2 (Homo sapiens, UniProt P21802).
T1 construct: purchased Carna 08-134
Nature of the assay: FGFR2 Biochemical Caliper Assay (KinEASE-TK kit). As to conditions: 0.07 nM FGFR2; compound incubated with protein 10 min, reaction 45 min at RT; read-out: FGFR2 Cliper IC50. The method, then:
Compounds of the present invention were tested in a FGFR1, FGFR2, and FGFR3 Biochemical Caliper Assay.
(§1) Enzyme activity was monitored using KinEASE-TK kit (CisBio, Cat.No. 62TK0PEC) according to manufacturer's instructions. […] Final enzyme concentration was 0.2 nM for FGFR1 and FGFR3, 0.07 nM for FGFR2. Compounds were prepared in 10 mM DMSO and serially diluted into 10 concentrations by 3-fold dilution. Prior to the initiation of the reaction by adding TK-substrate/ATP mixture, the compounds were incubated with protein for 10 min at RT. […] Plates were quenched by adding TK-antibody-Cryptate and Sa-XL665 mixture. After 60 min in the stop solution, read the signal on microplate reader (Molecular Devices, i3x), excitation of 320 nm and emission of 615 nm and 665 nm with a […]. IC50 values were calculated using Prism 7 (GraphPad).

In assay [2] the target is T2, FGFR1 (Homo sapiens, UniProt P11362).
T2 construct: purchased Carna 08-133
T2 sequence (P11362 22-822): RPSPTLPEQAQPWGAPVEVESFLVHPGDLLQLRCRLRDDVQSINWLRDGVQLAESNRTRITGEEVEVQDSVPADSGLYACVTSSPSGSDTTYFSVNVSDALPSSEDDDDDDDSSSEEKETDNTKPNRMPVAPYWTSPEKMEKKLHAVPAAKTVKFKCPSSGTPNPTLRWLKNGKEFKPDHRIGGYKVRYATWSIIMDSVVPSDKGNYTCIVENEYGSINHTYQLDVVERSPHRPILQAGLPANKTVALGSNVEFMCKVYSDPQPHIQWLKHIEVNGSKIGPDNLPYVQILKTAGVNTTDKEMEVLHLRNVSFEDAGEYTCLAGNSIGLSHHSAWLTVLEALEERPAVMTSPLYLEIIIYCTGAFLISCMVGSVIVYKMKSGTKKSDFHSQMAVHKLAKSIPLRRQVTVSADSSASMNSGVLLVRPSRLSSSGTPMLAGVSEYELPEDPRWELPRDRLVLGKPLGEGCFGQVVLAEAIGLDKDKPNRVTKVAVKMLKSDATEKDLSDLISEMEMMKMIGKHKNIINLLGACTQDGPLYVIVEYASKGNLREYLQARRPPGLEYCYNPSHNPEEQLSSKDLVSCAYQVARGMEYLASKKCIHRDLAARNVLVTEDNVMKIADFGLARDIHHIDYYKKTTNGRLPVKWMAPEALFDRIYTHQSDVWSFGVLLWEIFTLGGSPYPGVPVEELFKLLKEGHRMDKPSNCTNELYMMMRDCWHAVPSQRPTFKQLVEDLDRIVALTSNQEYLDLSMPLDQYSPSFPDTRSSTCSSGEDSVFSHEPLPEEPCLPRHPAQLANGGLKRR
Nature of the assay: FGFR1 Biochemical Caliper Assay (KinEASE-TK kit). As to conditions: ratio FGFR1/FGFR2 of the biochemical assay. The method, then: as §1, with “Compounds of the present invention were tested in a FGFR1, FGFR2, and FGFR3 Biochemical Caliper Assay. Enzyme” for “Enzyme”

For assay [3], the target named is T3, FGFR3 (Homo sapiens, UniProt P22607).
T3 construct: purchased Carna 08-135
T3 sequence (P22607 23-806): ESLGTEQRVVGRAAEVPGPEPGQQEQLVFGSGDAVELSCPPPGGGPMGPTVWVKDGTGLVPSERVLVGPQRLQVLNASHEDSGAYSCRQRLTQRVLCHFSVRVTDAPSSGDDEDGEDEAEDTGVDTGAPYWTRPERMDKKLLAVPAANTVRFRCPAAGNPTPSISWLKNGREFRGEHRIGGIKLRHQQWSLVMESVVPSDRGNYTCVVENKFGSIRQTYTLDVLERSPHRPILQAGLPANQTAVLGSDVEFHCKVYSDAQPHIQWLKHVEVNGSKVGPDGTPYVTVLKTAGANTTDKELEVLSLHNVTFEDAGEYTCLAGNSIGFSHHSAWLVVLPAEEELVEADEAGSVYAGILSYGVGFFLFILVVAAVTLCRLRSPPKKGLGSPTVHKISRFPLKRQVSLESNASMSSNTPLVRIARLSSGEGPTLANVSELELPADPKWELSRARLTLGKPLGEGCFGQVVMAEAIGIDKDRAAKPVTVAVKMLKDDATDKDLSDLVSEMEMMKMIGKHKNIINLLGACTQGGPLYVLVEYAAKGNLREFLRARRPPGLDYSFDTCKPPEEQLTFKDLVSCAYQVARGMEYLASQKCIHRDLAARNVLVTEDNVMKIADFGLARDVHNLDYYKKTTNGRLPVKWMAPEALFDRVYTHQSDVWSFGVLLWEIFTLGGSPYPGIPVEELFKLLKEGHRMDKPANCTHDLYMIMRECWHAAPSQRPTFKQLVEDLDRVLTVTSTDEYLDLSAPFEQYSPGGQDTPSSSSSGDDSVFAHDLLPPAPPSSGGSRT
Nature of the assay: FGFR3 Biochemical Caliper Assay (KinEASE-TK kit). Particulars: ratio FGFR3/FGFR2 of the biochemical assay. The method, then: as §1, with “Compounds of the present invention were tested in a FGFR1, FGFR2, and FGFR3 Biochemical Caliper Assay. Enzyme” for “Enzyme”

Assay [4] concerns SNU16 cells. Nature of the assay: SNU16 Cancer Cell Line Proliferation Assay (CellTiter-Glo). In kind it is cell-based. As to conditions: Homo sapiens, SNU-16, 72 h. The method, then:
Compounds of the present invention were also tested in a SNU16 Cancer Cell Line Proliferation Assay.
SNU16 cells were plated in 96-well clear bottom/white plate(Costar, Cat.No. 3610) at 5000 cells/well in 100 μl medium. Test compounds were prepared in a 10 mM DMSO stock solution and serially diluted into 9 concentrations by 3-fold dilution. 0.5 μl of each concentration of compound was added into the cell culture plates and DMSO as a control. The plates were incubated for 72 h at 37° C. and 5% CO2 incubator. 50 μl CellTiter-Glo reagent (Promega, G7572) was added into each well and then the plates were shaken gently for 10 min at room temperature. Luminescence was read on microplate reader (Molecular Devices, i3x), IC50 values were calculated using Prism 7 (GraphPad).

T1 sequence (P21802 22-821): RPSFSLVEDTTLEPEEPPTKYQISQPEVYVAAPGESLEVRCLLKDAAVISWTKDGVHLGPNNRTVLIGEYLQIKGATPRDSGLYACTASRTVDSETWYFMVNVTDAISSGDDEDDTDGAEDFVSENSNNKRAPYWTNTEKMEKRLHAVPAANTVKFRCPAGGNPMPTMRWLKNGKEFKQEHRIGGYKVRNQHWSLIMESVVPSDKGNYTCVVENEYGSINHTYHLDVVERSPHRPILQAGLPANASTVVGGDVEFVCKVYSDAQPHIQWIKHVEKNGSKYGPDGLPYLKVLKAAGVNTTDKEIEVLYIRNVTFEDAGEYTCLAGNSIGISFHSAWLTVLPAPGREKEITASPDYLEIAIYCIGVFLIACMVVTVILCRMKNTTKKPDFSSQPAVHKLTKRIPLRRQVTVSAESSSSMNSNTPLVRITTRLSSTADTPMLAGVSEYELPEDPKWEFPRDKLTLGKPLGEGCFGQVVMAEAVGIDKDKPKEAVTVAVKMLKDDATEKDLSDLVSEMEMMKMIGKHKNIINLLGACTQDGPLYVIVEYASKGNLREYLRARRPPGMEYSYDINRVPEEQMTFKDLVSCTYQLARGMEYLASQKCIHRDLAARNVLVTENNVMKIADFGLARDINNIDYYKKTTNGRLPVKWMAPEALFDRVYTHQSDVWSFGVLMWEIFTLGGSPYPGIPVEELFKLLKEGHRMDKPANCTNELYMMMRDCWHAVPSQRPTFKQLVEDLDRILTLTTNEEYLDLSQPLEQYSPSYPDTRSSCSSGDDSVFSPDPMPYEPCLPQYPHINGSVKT

`C=CC(=O)Nc1ccc(-c2nn3ncnc(N)c3c2-c2ccc(C(=O)NC3CC(F)(F)C3)c(OC)c2)cc1` [Compound 98, 4-(6-(4-acrylamidophenyl)-4-aminopyrazolo[5,1-f] [1,2,4]triazin-5-yl)-N-(3,3-difluorocyclobutyl)-2-methoxybenzamide]: the IC50 was less than 0.005 µM in assay [1] and no more than 0.01 µM in assay [4]. Besides, the “Selectivity FGFR1/FGFR2” value in assay [2] is recorded as “A+ (Selectivity of FGFR1/FGFR2 greater or equal to 500)”. Also, the “Selectivity FGFR3/FGFR2” value in assay [3] is recorded as “A+ (Selectivity of FGFR3/FGFR2 greater or equal to 150)”.

As for `C=C(F)C(=O)Nc1ccc(-c2nn3ncnc(N)c3c2-c2ccc(C(=O)NCC(F)(F)F)c(OC)c2)c(F)c1` [Compound 100, 4-(4-amino-6-(2-fluoro-4-(2-fluoroacrylamido)phenyl)pyrazolo[5,1-f][1,2,4]triazin-5-yl)-2-methoxy-N-(2,2,2-trifluoroethyl)benzamide], the IC50 in assay [1] was less than 0.005 µM; in assay [4], no more than 0.01 µM. In addition, in assay [2], the “Selectivity FGFR1/FGFR2” value is “A+ (Selectivity of FGFR1/FGFR2 greater or equal to 500)”. In addition, the “Selectivity FGFR3/FGFR2” value in assay [3] is on record as “A+ (Selectivity of FGFR3/FGFR2 greater or equal to 150)”.

Turning to `C=C(F)C(=O)Nc1ccc(-c2nn3ncnc(N)c3c2-c2ccc(C(=O)NCC(F)(F)F)c(OC)c2)c(C)c1` [Compound 101, 4-(4-amino-6-(4-(2-fluoroacrylamido)-2-methylphenyl)pyrazolo[5,1-f][1,2,4]triazin-5-yl)-2-methoxy-N-(2,2,2-trifluoroethyl)benzamide], the IC50 was less than 0.005 µM in assay [1] and no more than 0.01 µM in assay [4]. The “Selectivity FGFR1/FGFR2” value in assay [2] was “A+ (Selectivity of FGFR1/FGFR2 greater or equal to 500)”. The “Selectivity FGFR3/FGFR2” value in assay [3] was “B (Selectivity of FGFR3/FGFR2 less than 100 but greater than or equal to 25)”.

For the molecule `C=C(F)C(=O)Nc1ccc(-c2nn3ncnc(N)c3c2-c2ccc(C(=O)NCC(F)(F)F)c(OC)c2)c(OC)c1` [Compound 102, 4-(4-amino-6-(4-(2-fluoroacrylamido)-2-methoxyphenyl)pyrazolo[5,1-f][1,2,4]triazin-5-yl)-2-methoxy-N-(2,2,2-trifluoroethyl)benzamide], the IC50 in assay [1] is greater than 0.01 µM; in assay [4], no more than 0.01 µM. Besides, the “Selectivity FGFR1/FGFR2” value in assay [2] is “B (Selectivity of FGFR1/FGFR2 less than 300 but greater than or equal to 200)”. In addition, the “Selectivity FGFR3/FGFR2” value in assay [3] was “B (Selectivity of FGFR3/FGFR2 less than 100 but greater than or equal to 25)”.

As to `C=C(F)C(=O)Nc1ccc(-c2c(-c3ccc(C(=O)NC4CC4)c(OC)c3)c3c(N)ncc(C#N)c3n2C)cc1` [Compound 104, 4-(4-amino-7-cyano-2-(4-(2-fluoroacrylamido)phenyl)-1-methyl-1H-pyrrolo[3,2-c]pyridin-3-yl)-N-cyclopropyl-2-methoxybenzamide], the IC50 in assay [1] was 0.005 to 0.01 µM; in assay [4], no more than 0.01 µM. Further, the “Selectivity FGFR1/FGFR2” value in assay [2] was “A+ (Selectivity of FGFR1/FGFR2 greater or equal to 500)”. The “Selectivity FGFR3/FGFR2” value in assay [3] is recorded as “A+ (Selectivity of FGFR3/FGFR2 greater or equal to 150)”.

With `C=CC(=O)Nc1ccc(-c2c(-c3ccc(C(=O)NC4CC4)c(OC)c3)c3c(N)ncc(C#N)c3n2C)cc1` [Compound 105], the IC50 in assay [1] was less than 0.005 µM; in assay [4], no more than 0.01 µM. Also, the “Selectivity FGFR1/FGFR2” value in assay [2] is given as “A+ (Selectivity of FGFR1/FGFR2 greater or equal to 500)”. Besides, the “Selectivity FGFR3/FGFR2” value in assay [3] was “A (Selectivity of FGFR3/FGFR2 less than 150 but greater than or equal to 100)”.

Consider `C=CC(=O)Nc1ccc(-c2c(-c3ccc(C(=O)NCC)c(OC)c3)c3c(N)ncc(C#N)c3n2C)cc1` [Compound 107, 4-(2-(4-acrylamidophenyl)-4-amino-7-cyano-1-methyl-1H-pyrrolo[3,2-c]pyridin-3-yl)-N-ethyl-2-methoxybenzamide], for which the IC50 in assay [1] was less than 0.005 µM; in assay [4], no more than 0.01 µM. Further, the “Selectivity FGFR1/FGFR2” value in assay [2] was “A+ (Selectivity of FGFR1/FGFR2 greater or equal to 500)”. In assay [3], the “Selectivity FGFR3/FGFR2” value is “A (Selectivity of FGFR3/FGFR2 less than 150 but greater than or equal to 100)”.

As to `C=CC(=O)Nc1ccc(-c2c(-c3ccc(C(=O)NC(C)C)c(OC)c3)c3c(N)ncc(C#N)c3n2C)cc1` [Compound 108, 4-(2-(4-acrylamidophenyl)-4-amino-7-cyano-1-methyl-1H-pyrrolo[3,2-c]pyridin-3-yl)-N-isopropyl-2-methoxybenzamide], the IC50 in assay [1] is less than 0.005 µM; in assay [4], no more than 0.01 µM. The “Selectivity FGFR1/FGFR2” value in assay [2] is “A+ (Selectivity of FGFR1/FGFR2 greater or equal to 500)”. For the same molecule, the “Selectivity FGFR3/FGFR2” value in assay [3] is listed as “A (Selectivity of FGFR3/FGFR2 less than 150 but greater than or equal to 100)”.

On to `C=CC(=O)Nc1ccc(-c2c(-c3ccc(C(=O)NC4CCCC4)c(OC)c3)c3c(N)ncc(C#N)c3n2C)cc1` [Compound 109, 4-(2-(4-acrylamidophenyl)-4-amino-7-cyano-1-methyl-1H-pyrrolo[3,2-c]pyridin-3-yl)-N-cyclopentyl-2-methoxybenzamide], for which the concentration for half-maximal inhibition (IC50) was less than 0.005 µM in assay [1] and no more than 0.01 µM in assay [4]. Besides, the “Selectivity FGFR1/FGFR2” value in assay [2] was “A+ (Selectivity of FGFR1/FGFR2 greater or equal to 500)”. Further, the “Selectivity FGFR3/FGFR2” value in assay [3] is listed as “B (Selectivity of FGFR3/FGFR2 less than 100 but greater than or equal to 25)”.

Turning to `C=CC(=O)Nc1ccc(-n2nc3c(=O)[nH]nc(N)c3c2-c2ccc(Oc3cccc(C)n3)c(OC)c2)cc1` [Compound 115], the IC50 in assay [1] is 0.005 to 0.01 µM; in assay [4] it was 0.01 to 0.05 µM. In addition, in assay [2], the “Selectivity FGFR1/FGFR2” value is listed as “C (Selectivity of FGFR1/FGFR2 less than 200 but greater than or equal to 100)”. For the same molecule, in assay [3], the “Selectivity FGFR3/FGFR2” value is “A+ (Selectivity of FGFR3/FGFR2 greater or equal to 150)”.

For the molecule `C=CC(=O)Nc1ccc(-n2nc3c(=O)[nH]nc(N)c3c2-c2ccc(Oc3nccc(C)n3)c(OC)c2)cc1` [Compound 134, N-(4-(4-amino-3-(3-methoxy-4-((4-methylpyrimidin-2-yl)oxy)phenyl)-7-oxo-6,7-dihydro-2H-pyrazolo[3,4-d]pyridazin-2-yl)phenyl)acrylamide], the figures for the half-inhibitory concentration (IC50) in assay [1] and in assay [4] were less than 0.005 µM and greater than 0.05 µM, respectively. For the same molecule, the “Selectivity FGFR1/FGFR2” value in assay [2] was “C (Selectivity of FGFR1/FGFR2 less than 200 but greater than or equal to 100)”. For the same molecule, in assay [3], the “Selectivity FGFR3/FGFR2” value is reported as “A+ (Selectivity of FGFR3/FGFR2 greater or equal to 150)”.

As for `C=C(F)C(=O)Nc1ccc(-n2nc3c(=O)[nH]nc(N)c3c2-c2ccc(C(=O)NC3CCC3)c(OC)c2)cc1` [Compound 137, 4-(4-amino-2-(4-(2-fluoroacrylamido)phe-nyl)-7-oxo-6,7-dihydro-2H-pyrazolo[3,4-d]pyridazin-3-yl)-N-cyclobutyl-2-methoxybenzamide], the IC50 in assay [1] was 0.005 to 0.01 µM; in assay [4], 0.01 to 0.05 µM. For the same molecule, the “Selectivity FGFR1/FGFR2” value in assay [2] is “A+ (Selectivity of FGFR1/FGFR2 greater or equal to 500)”. For the same molecule, in assay [3], the “Selectivity FGFR3/FGFR2” value was “A+ (Selectivity of FGFR3/FGFR2 greater or equal to 150)”.

Consider `C=CC(=O)Nc1ccc(-c2c(-c3ccc(C(=O)NCC(F)(F)F)c(OC)c3)c3c(N)ncc(C#N)c3n2C)c(F)c1` [Compound 150, 4-(2-(4-acrylamido-2-fluorophenyl)-4-amino-7-cyano-1-methyl-1H-pyrrolo[3,2-c]pyridin-3-yl)-2-methoxy-N-(2,2,2-trifluoroethyl)benzamide], for which the values for the IC50 in assay [1] and in assay [4] were less than 0.005 µM and no more than 0.01 µM, respectively. Also, the “Selectivity FGFR1/FGFR2” value in assay [2] is reported as “A+ (Selectivity of FGFR1/FGFR2 greater or equal to 500)”. Also, in assay [3], the “Selectivity FGFR3/FGFR2” value is given as “B (Selectivity of FGFR3/FGFR2 less than 100 but greater than or equal to 25)”.

As to `C=C(F)C(=O)Nc1ccc(-c2c(-c3ccc(C(=O)NCC(F)(F)F)c(OC)c3)c3c(N)ncc(C#N)c3n2C)c(F)c1` [Compound 151, 4-(4-amino-7-cyano-2-(2-fluoro-4-(2-fluoroacrylamido)phenyl)-1-methyl-1H-pyrrolo [3,2-c]pyridin-3-yl)-2-methoxy-N-(2,2,2-trifluoroethyl)benzamide], the half-maximal inhibitory concentration (IC50) in assay [1] is 0.005 to 0.01 µM; in assay [4], no more than 0.01 µM. In assay [2], the “Selectivity FGFR1/FGFR2” value was “A+ (Selectivity of FGFR1/FGFR2 greater or equal to 500)”. In assay [3], the “Selectivity FGFR3/FGFR2” value is “A+ (Selectivity of FGFR3/FGFR2 greater or equal to 150)”.
